Data set [1] has as its system phosphorylation of STAT1, STAT3, and STAT5. Nature of the data set: STAT phosphorylation in primary human T cells (Western blotting). In kind it is cell-based. The settings on record: starvation 1 h, stimulated with 10 ng/mL IFN-α. The text has this: Subsequently, we examined the ability of WU4 and WU8 to inhibit JAK signaling by measuring the levels of phosphorylation of STATs, downstream transcription factors of JAK signaling. […] This inhibitory capacity of WU4 and WU8 correlates with their IC50 values (Figure 1J) and the ability to reduce CXCR3 expression (Figure 3). We then decided to further investigate WU4 and WU8 as potent novel JAK inhibitors for the prevention of GvHD in our preclinical mouse model of allo-HCT.
Figure 4 Effect of WU4 and WU8 on the inhibition of JAK signaling in primary human T cells. STAT phosphorylation was determined as the indicator of JAK signaling. Primary human T cells were obtained from the peripheral blood of healthy donors. […] The phosphorylation of STATs was measured by Western blotting. Total […] and GAPDH served as loading controls.
A general note: Immunoblotting shows a protein as a band on a membrane.

Data set [2] is described as follows: Mouse PK after subcutaneous injection. In kind it is in vivo. As to conditions: 2 mg/kg s.c., CD-1 mice, time points up to 6 h; WU derivatives compared to BARI.
The target in another data set is TYK2 (Homo sapiens, UniProt P29597). Kind of data set: Z'-LYTE enzyme activity assay (SelectScreen Kinase Profiling), TYK2.
Another data set has as its target T1, JAK3 (Homo sapiens, UniProt P52333).
T1 sequence (P52333 1-1124): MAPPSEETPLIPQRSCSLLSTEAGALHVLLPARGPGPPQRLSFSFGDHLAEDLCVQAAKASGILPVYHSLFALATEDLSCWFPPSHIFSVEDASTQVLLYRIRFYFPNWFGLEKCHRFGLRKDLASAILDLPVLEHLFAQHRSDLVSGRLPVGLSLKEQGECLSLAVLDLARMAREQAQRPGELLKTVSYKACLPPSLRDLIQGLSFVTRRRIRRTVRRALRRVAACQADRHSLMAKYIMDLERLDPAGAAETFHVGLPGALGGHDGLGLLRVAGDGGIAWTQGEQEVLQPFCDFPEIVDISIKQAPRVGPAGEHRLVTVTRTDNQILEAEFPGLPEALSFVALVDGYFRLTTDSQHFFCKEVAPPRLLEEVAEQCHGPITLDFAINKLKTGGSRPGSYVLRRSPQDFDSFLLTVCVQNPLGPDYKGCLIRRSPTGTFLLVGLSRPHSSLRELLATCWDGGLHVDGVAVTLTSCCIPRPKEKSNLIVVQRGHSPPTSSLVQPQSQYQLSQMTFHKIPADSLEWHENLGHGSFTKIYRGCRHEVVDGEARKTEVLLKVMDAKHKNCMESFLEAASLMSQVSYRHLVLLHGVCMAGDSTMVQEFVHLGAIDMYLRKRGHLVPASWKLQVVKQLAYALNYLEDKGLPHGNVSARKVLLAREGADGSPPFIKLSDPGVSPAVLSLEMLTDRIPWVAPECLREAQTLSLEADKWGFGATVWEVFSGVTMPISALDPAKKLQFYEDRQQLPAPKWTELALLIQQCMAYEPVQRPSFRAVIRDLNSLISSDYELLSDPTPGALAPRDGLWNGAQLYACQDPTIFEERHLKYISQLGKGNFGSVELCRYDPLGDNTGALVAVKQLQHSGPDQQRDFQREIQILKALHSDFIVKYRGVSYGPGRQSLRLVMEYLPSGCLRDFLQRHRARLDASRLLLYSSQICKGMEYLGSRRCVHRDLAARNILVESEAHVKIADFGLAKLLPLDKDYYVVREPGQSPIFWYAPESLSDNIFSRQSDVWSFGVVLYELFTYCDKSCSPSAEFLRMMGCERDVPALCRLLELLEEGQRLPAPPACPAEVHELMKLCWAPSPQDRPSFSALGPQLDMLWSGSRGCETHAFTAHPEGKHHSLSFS
Kind of data set: Z'-LYTE enzyme activity assay (SelectScreen Kinase Profiling), JAK3.

The subject of another data set is T-bet. Kind of data set: T-bet expression in activated primary murine T cells (flow cytometry). In kind it is cell-based, B6 mice. As to conditions: anti-CD3/CD28 activation beads, 3 days, dose-dependent. The text has this: WU6 is a derivative of WU4, incorporating a trifluoromethane sulfonamide for WU6 instead of an ethyl sulfonamide for WU4. […]. […] Subsequently, we examined the effect of WU6 on the expression of CXCR3 and T-bet (the master transcription factor of Th1 and cytotoxic T cell differentiation) in primary murine T cells.
Figure 8 Effect of WU6 on the expression of CXCR3 and T-bet in vitro and GvHD in mouse model of allo-HCT. (A–D) Primary T cells were isolated from B6 and treated with WU6 at indicated doses for 3 days in the presence of anti-CD3/CD28 activation beads. After 3 days, the expression of CXCR3 (A,B) and T-bet (C,D) in the CD4 and CD8 was determined by flow cytometry. Survival rate and (E) clinical GvHD scores (F) of mice treated with WU6 after allo-HCT. (G,H) % BM-derived B cells (B220+) and T cells (CD3+) were examined in the peripheral blood on day 27 after allo-HCT. * p < 0.05, ** p < 0.01, and *** p < 0.001. All error bars are represented as mean ± standard deviation.
T cells from in vitro primary murine T cell culture, fresh peripheral blood, or whole splenocytes were analyzed according to cell surface and intracellular markers. […] All cells were run on a ZE5 Cell Analyzer (BD Biosciences, Mountain View, CA, USA) or Attune® NxT (Thermofisher Scientific, Waltham, MA, USA) and analyzed with the FlowJo software, version 10.9.0 (FlowJo LLC., Ashland, OR, USA). […]

TYK2, sequence (P29597 whole entry): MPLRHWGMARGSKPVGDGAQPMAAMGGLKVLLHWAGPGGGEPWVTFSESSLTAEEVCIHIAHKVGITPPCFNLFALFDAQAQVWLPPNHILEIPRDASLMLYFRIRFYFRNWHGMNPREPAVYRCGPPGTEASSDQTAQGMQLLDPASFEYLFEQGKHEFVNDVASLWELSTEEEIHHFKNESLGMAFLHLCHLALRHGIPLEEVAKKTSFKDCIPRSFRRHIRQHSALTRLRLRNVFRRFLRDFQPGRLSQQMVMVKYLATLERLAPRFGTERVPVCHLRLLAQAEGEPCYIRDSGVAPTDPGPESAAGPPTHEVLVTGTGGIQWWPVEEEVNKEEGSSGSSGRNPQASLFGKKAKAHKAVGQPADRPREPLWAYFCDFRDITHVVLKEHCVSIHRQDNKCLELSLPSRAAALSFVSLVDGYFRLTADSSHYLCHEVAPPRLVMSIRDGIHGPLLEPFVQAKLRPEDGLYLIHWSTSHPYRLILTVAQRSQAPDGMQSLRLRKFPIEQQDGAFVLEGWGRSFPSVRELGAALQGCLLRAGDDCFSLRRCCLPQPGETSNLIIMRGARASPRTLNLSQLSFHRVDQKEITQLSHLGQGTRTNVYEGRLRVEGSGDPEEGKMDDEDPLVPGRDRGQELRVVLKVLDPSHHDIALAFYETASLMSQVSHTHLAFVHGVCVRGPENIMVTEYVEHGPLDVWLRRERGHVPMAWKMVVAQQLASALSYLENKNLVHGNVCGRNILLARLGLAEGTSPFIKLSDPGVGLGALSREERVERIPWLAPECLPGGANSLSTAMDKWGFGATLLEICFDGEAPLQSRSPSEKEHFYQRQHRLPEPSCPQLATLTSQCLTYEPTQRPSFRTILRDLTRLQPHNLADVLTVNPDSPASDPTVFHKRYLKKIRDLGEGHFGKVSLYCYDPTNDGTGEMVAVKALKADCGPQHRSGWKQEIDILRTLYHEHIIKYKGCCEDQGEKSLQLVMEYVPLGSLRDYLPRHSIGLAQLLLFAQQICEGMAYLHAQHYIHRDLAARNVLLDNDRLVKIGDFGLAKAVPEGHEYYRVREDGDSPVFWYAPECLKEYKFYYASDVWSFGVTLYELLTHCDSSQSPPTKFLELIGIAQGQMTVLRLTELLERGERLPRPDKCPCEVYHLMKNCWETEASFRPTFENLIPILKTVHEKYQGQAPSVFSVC

What is called IC50 is the concentration needed to halve the response being measured. The low end stands for greater potency, the high end for weaker potency. Regarding `CCS(=O)(=O)NC1CC2(C1)CC(CC#N)(n1cc(-c3ncnc4[nH]ccc34)cn1)C2` (centres unmarked) [WU4], the “phosphorylation of STATs” value in data set [1] was “inhibit the phosphorylation of STAT1, STAT3, and STAT5”. Further, in data set [2], the “plasma drug concentration (mouse PK)” value is given as “comparable PK to BARI throughout all time points”. For the same compound, the IC50 against TYK2 (IC50 TYK2, ATP at 1 mM) was 1.09 nM; against TYK2 (IC50 TYK2, ATP at app. Km) it was 0.417 nM; at JAK3 (IC50 JAK3, ATP at 1 mM), 84 nM; against JAK3 (IC50 JAK3, ATP at app. Km), 1.14 nM.
For `N#CCC1(n2cc(-c3ncnc4[nH]ccc34)cn2)CC2(CC(NS(=O)(=O)C(F)(F)F)C2)C1` (centres unmarked) [WU6], the “T-bet expression in CD4 and CD8 T cells” value in the data set with T-bet is reported as “significantly downregulated”. For the same compound, the 50% inhibitory concentration (IC50) against TYK2 (IC50 TYK2, ATP at 1 mM) was 6.48 nM; at TYK2 (IC50 TYK2, ATP at app. Km), 0.766 nM; against JAK3 (IC50 JAK3, ATP at 1 mM), 311 nM; at JAK3 (IC50 JAK3, ATP at app. Km), 6.4 nM.
Turning to `N#CCC1(n2cc(-c3ncnc4[nH]ccc34)cn2)CCS(=O)(=O)CC1` [WU8], in data set [1], the “phosphorylation of STATs” value is “inhibit the phosphorylation of STAT1, STAT3, and STAT5”. Besides, the “plasma drug concentration (mouse PK)” value in data set [2] was “significant increase in plasma drug concentration at 2 h post-dose”. Also, the IC50 was found to be 49.1 nM against TYK2 (IC50 TYK2, ATP at 1 mM); 2.84 nM against TYK2 (IC50 TYK2, ATP at app. Km); 549 nM against JAK3 (IC50 JAK3, ATP at 1 mM); 18.3 nM against JAK3 (IC50 JAK3, ATP at app. Km).

(Values after paper PMC11052071, “Novel JAK Inhibitors to Reduce Graft-Versus-Host Disease after Allogeneic Hematopoietic Cell Transplantation in a Preclinical Mouse Model” (Molecules, 2024).)
